Experiment [1] relates to BV-2. The experiment in a line: Cytotoxicity against mouse BV2 cells incubated for 48 hrs by MTT assay. The format is cell-based. Conditions: BV-2, 48 h. On the technique in general: Tetrazolium assays rely on reduction of a dye to a coloured formazan, in cell work by metabolically active cells.
Experiment [2] is described as follows: Therapeutic index, ratio of LC50 for human Panel NCI-60 (60 carcinoma cell lines) to GI50 for human Panel NCI-60 (60 carcinoma cell lines). The format is functional.
The next experiment concerns CAKI-1. As to the kind of experiment: Growth inhibition of human CAKI-1 cells at 10 uM incubated for 48 hrs by sulforhodamine B assay relative to control. The format is functional. The following applies: read-out: GI. Background: Sulforhodamine B stains cellular protein and so reports cell mass.
Experiment [3] concerns BV-2. As to the kind of experiment: Antiinflammatory activity against mouse BV2 cells assessed as inhibition of LPS-induced TNFalpha production at 1 uM by enzyme immunoassay. The format is functional.
The test system of experiment [4] is BV-2. The experiment in a line: Antiinflammatory activity against mouse BV2 cells assessed as decrease in LPS-induced NO production at 1 to 5 uM pretreated with compound followed by LPS stimulation incubated for 4 to 48 hrs by enzyme immunoassay. The format is functional, cell-based. The following applies: dose 1-5 µM, time 4-48 hrs.
In the next experiment the test system is SW-620. The experiment in a line: Growth inhibition of human SW-620 cells at 10 uM incubated for 48 hrs by sulforhodamine B assay relative to control. The format is functional. Conditions: read-out: GI.
In experiment [5] the test system is BV-2. The experiment in a line: Antiinflammatory activity against mouse BV2 cells assessed as reduction in LPS-induced IL6 production at 1 uM by enzyme immunoassay. The format is functional, cell-based.
Another experiment has as its system MCF7. The experiment in a line: Growth inhibition of human MCF7 cells at 10 uM incubated for 48 hrs by sulforhodamine B assay relative to control. The format is functional. Conditions: read-out: GI.
A further experiment has as its system K562. The experiment in a line: Growth inhibition of human K562 cells at 10 uM incubated for 48 hrs by sulforhodamine B assay relative to control. The format is functional. Conditions: read-out: GI.
A further experiment has as its system HCT-116. As to the kind of experiment: Growth inhibition of human HCT-116 cells at 10 uM incubated for 48 hrs by sulforhodamine B assay relative to control. The following applies: read-out: GI. The format is functional.
The next experiment deals with MDA-MB-231. The experiment in a line: Growth inhibition of human MDA-MB-231 cells at 10 uM incubated for 48 hrs by sulforhodamine B assay relative to control. The following applies: read-out: GI. The format is functional.
The test system of a further experiment is SR. As to the kind of experiment: Growth inhibition of human SR cells at 10 uM incubated for 48 hrs by sulforhodamine B assay relative to control. Conditions: read-out: GI. The format is functional.
Another experiment has as its system RPMI-8226. As to the kind of experiment: Growth inhibition of human RPMI8226 cells at 10 uM incubated for 48 hrs by sulforhodamine B assay relative to control. The format is functional. The following applies: read-out: GI.
For a further experiment, the system named is OVCAR-3. As to the kind of experiment: Growth inhibition of human OVCAR-3 cells at 10 uM incubated for 48 hrs by sulforhodamine B assay relative to control. The format is functional. Conditions: read-out: GI.

Calls of active or inactive are those of the source. The rule behind the calls is not given here. Some results are limits rather than exact numbers.

Broadly, the IC50 is the concentration needed to halve the response being measured.

`O=C1COCCN1c1ccc(N2C(=O)C(Cl)C2c2cn(Cc3ccccc3)c3ccccc23)cc1` (centres undefined) came in with an IC50 with BV-2 [1] of over 10 µM.

Take `O=c1[nH]cc(F)c(=O)[nH]1` [FLUOROURACIL]: the TI in experiment [2] is over 133.

With `O=C1COCCN1c1ccc(N2C(=O)C(Cl)C2c2cn(Cc3ccc(Cl)cc3)c3ccccc23)cc1` (centres undefined), in the experiment with BV-2 [1], the IC50 was over 10 µM.

In the case of `Cc1ccc(S(=O)(=O)n2cc(C3C(Cl)C(=O)N3c3ccc(N4CCOCC4=O)cc3)c3ccccc32)cc1` (centres undefined), the inhibition of growth at 10 µM in the experiment on CAKI-1 came out at 75%; in the experiment on SW-620 it was 74%; in the experiment with MCF7 it was 80%; with K562, 77%; with HCT-116, 83%; with MDA-MB-231, 83%. Moreover, the inhibition of growth at 10 µM with SR is 75%; in the experiment on RPMI-8226, 78%; in the experiment with OVCAR-3, 70%. Moreover, the outcome in the experiment with BV-2 [3], in the experiment on BV-2 [4] and with BV-2 [5] was Active. The molecule also showed a 50% inhibitory concentration (IC50) in the experiment on BV-2 [1] of over 10 µM.

The molecule `O=C1COCCN1c1ccc(N2C(=O)C(Cl)C2c2cn(Cc3ccc(F)cc3)c3ccccc23)cc1` (centres undefined) showed a 50% inhibitory concentration (IC50) in the experiment with BV-2 [1] of over 10 µM.

In the case of `O=C1COCCN1c1ccc(N2C(=O)C(Cl)C2c2cn(Cc3ccc4ccccc4c3)c3ccccc23)cc1` (centres undefined), the outcome in the experiment on BV-2 [3] and with BV-2 [5] was Active. In addition, in the experiment on BV-2 [1], the IC50 is over 10 µM.

With `C#CCn1cc(C2C(Cl)C(=O)N2c2ccc(N3CCOCC3=O)cc2)c2ccccc21` (centres undefined), the result in the experiment on BV-2 [4] was Active. The molecule further showed an IC50 with BV-2 [1] of over 10 µM.

Turning to `C=CCn1cc(C2C(Cl)C(=O)N2c2ccc(N3CCOCC3=O)cc2)c2ccccc21` (centres undefined), the IC50 with BV-2 [1] is over 10 µM.

Consider `COc1cccc2c1C(=O)c1c(O)c3c(c(O)c1C2=O)C[C@@](O)(C(=O)CO)C[C@@H]3O[C@H]1C[C@H](N)[C@H](O)[C@H](C)O1` [DOXORUBICIN], for which the TI in experiment [2] is 134.

(Values after ChEMBL document CHEMBL4814018, “Rationally designed TNF-α inhibitors: Identification of promising cytotoxic agents” (Bioorg Med Chem Lett, 2021).)
